Literature values in US11795119B2, “Stabilized DCD and/or alkyl thiophosphoric triamide solvent systems and use in agricultural applications” (RHODIA OPERATIONS, priority 2016, dated 2023).

Experiments:
[1] = typically above 45° C.

| solubility in water | Compound | degradation at higher temperature [1] |
| --- | --- | --- |
| about 41 g/l | N#CNC(=N)N [Dicyandiamide, 2-cyanoguanidine] | – |
| – | CCCCNP(N)(N)=S [NBPT, N-(n-butyl)-thiophosphoric triamide] | degrades rapidly |
